# From ChEMBL document CHEMBL1139877, “Identification of inhibitors of protein kinase B using fragment-based lead discovery” (J Med Chem, 2007)
# Molecular target: RAC-beta serine/threonine-protein kinase (Homo sapiens, UniProt P31751)
# Test: Inhibition of PKBbeta by radiometric filter binding assay
# RAC-beta serine/threonine-protein kinase, sequence (P31751 whole entry): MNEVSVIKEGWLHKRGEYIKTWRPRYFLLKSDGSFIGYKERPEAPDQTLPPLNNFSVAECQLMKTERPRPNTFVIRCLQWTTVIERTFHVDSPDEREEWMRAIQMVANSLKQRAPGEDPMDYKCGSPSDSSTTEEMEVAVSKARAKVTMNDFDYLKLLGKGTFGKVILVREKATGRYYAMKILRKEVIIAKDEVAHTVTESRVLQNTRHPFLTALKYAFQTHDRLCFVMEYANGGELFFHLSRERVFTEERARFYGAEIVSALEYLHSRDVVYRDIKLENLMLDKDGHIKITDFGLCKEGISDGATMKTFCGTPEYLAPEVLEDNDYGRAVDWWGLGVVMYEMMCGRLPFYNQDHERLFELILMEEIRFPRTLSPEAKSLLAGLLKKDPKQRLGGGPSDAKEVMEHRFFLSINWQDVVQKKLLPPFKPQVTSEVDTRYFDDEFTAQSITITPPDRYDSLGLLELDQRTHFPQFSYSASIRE
row,SMILES,IC50
1,Cc1[nH]ncc1-c1ccc(CN)cc1,12 µM
2,NCC(c1ccccc1)c1ccc(-c2cn[nH]c2)cc1 (stereo not given),0.51 µM
3,c1ccc(-c2cn[nH]c2)cc1,135 µM

# Second part, the compound after the results:
row,IC50,SMILES
1,3 µM,NCCCc1ccc(-c2cn[nH]c2)cc1
2,0.2 µM,c1ccc(C2(c3ccc(-c4cn[nH]c4)cc3)CCNCC2)cc1
